Laboratory results taken from the METLIN SMRT retention time set (Domingo-Almenara et al. 2019).

Test: gradient 5% acetonitrile 3 min, to 50% in 2 min, to 85% in 15 min, held 3 min, 100 µL/min
Conditions: column: Zorbax Extend-C18 2.1 x 50 mm; eluents: water / acetonitrile, 0.1% formic acid
Summary of the method: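 Data were gathered over 3 months by HPLC coupled to a quadrupole time-of-flight mass spectrometer, operated in positive and negative ionization mode. Mixtures of ~100 pure standards ran on a Zorbax Extend-C18 column (2.1 × 50 mm, 1.8 μm) at 100 μL/min, with water and acetonitrile each containing 0.1% formic acid and dead and dwell volumes of 40 μL and 900 μL. Retention time was read from adduct peaks picked by computer and checked manually.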

SMILES | RP-LC retention time
Cc1csc(-c2cc(S(=O)(=O)Nc3ccc(F)c(F)c3)cn2CC(=O)N2CCCC2)n1 | 927 s
COCc1c(C(=O)N2CCCC2Cc2noc(C3CCCC3)n2)noc1C (stereo not given) | 922 s
O=C(c1ccc(OCC2CCN(C(=O)c3ccoc3)CC2)cc1)N1CCOCC1 | 697 s
CCc1cccc(NC(=O)Nc2ccc3nncn3c2)c1 | 747 s
Cc1ccc(CNC(=O)C2CCN(c3nc4cccnc4s3)CC2)o1 | 704 s
CCOc1ccc(CNc2nc3ccncc3n(C(C)C)c2=O)cc1OC | 584 s
CCC1(O)CCOC2(CCN(C(=O)C3CC=CC3)CC2)C1 (stereo not given) | 686 s
COc1ccc(-n2c(=O)c3sccc3n(Cc3nc(-c4ccc(F)cc4)no3)c2=O)cc1 | 964 s
CCOc1ccc(-c2nc(CN(c3ccccc3)S(=O)(=O)c3cccs3)c(C)o2)cc1 | 1220 s
CCN1C(=O)COc2ccc(-c3nc(NC(=O)C4CCCO4)sc3C)cc21 (stereo not given) | 844 s
Cc1ccccc1S(=O)(=O)N1CCCN(c2ccc(=O)n(-c3ccccc3)n2)CC1 | 859 s
CN1C2CC(OC(=O)C(CO)c3ccccc3)CC1C(O)C2 (stereo not given) | 586 s
O=C(NCCc1ccsc1)c1ccc(Cl)c(Cl)c1 | 933 s
O=C(NCc1ccccn1)C1CCN(c2nc3ccc(-c4cncnc4)nc3s2)CC1 | 599 s
Cc1ccc(NC(=O)CN2C(=O)CC(C)S(=O)(=O)c3ccccc32)cc1Cl (stereo not given) | 894 s
NS(=O)(=O)OC[C@@H]1C[C@@H](n2ccc3c(N[C@H]4CCc5ccccc54)ncnc32)C[C@H]1O | 724 s
CC(C)Cn1cc(CCNS(=O)(=O)Cc2ccc(Cl)cc2)c2cccnc21 | 986 s
CNC(=O)c1cc(N(C)C)nc2c(C)cccc12 | 557 s
CCOc1ccc(S(=O)(=O)N2CCC(C(=O)NCCOC)CC2)cc1 | 709 s
Cc1cccc(-c2nnc(C)c(N3CCC4(CC3)OCCO4)n2)c1 | 673 s
Cc1ccc(-c2c(C(F)(F)F)nn3c(N4CCN(c5ccccn5)CC4)cc(C)nc23)cc1 | 910 s
N[C@@H](CC(=O)N1CCn2c(nnc2C(F)(F)F)C1)Cc1cc(F)c(F)cc1F | 675 s
CCCc1noc(-c2ccc3nnc(CC(=O)Nc4ccc(Cl)cc4)n3c2)n1 | 937 s

SMILES | RP-LC retention time
O=C(NCCN1CCCCC1)c1nc2ccccn2c1-c1ccsc1 | 527 s
Cc1nc(-n2cccc2)sc1C(=O)OCc1cc(-c2ccc3c(c2)OCCO3)on1 | 1210 s
Oc1ccccc1-n1c(-c2ccccc2)ccc1-c1ccccc1 | 1190 s
CN1CCN(S(=O)(=O)c2cccc(C#N)c2)CC1c1ccc(F)cc1 (stereo not given) | 579 s
Cc1ccc(CNC(=O)Cn2cnc3nc4c(cc3c2=O)CCCC4)cc1 | 728 s
NC(=O)C1CCN(C(=O)c2cncc(NS(=O)(=O)c3ccc(F)cc3)c2)CC1 | 606 s
Cc1nnc(-c2ccc3ccn(CC(=O)Nc4ccc(F)c(F)c4)c3c2)o1 | 829 s
CC(C)(C)c1noc(-c2ccc(=O)n(Cc3cccc(Cl)c3)n2)n1 | 1150 s
CCc1cc(-c2csc(S(=O)(=O)Nc3ccc(F)c(Cl)c3)c2)on1 | 1020 s
CCCN(C)c1nccn2c(=O)n(CC(=O)Nc3cccc(Cl)c3)nc12 | 724 s
CCn1cnc(S(=O)(=O)N2CCCC(C(=O)Nc3ccc(C(C)C)cc3)C2)c1 (stereo not given) | 878 s
Cn1cnc2cc(OC(=O)c3c(F)cccc3F)ccc21 | 590 s
CCN1C(=O)c2ccccc2Oc2ccc(C(=O)N3CCCCCC3)cc21 | 900 s
O=C(c1ccc(-c2ccsc2)nc1)N1CCCC1 | 716 s
CC1=C(c2ccc(C)cc2)S(=O)(=O)N=C1N1CCCN(C(=O)c2ccccc2F)CC1 | 846 s
CCOc1ccccc1NC(=O)CSc1ncc(-c2cccc(Br)c2)o1 | 1170 s
CCCCn1cc(S(=O)(=O)N2CCN(c3cccc(C)c3)CC2)c2cccnc21 | 1220 s
COc1ccc2[nH]c(=O)c(CCC(=O)NCCc3ccccn3)cc2c1 | 576 s
c1nc(NC2CCCCCC2)c2[nH]cnc2n1 | 564 s
COc1ccc2c(c1)C1(CCN(C(=O)NC(C)C)C1)C(=O)N2C (stereo not given) | 681 s
COC(=O)c1ccccc1NC(=O)NCc1nc(-c2ccccc2)oc1C | 964 s
CCn1cnc(S(=O)(=O)N2CCC(C(=O)N3CCc4ccccc43)CC2)c1 | 754 s
Cc1cccc(NC(=O)Cn2nc(N3CCSCC3)c3ccccc3c2=O)c1 | 961 s

SMILES | RP-LC retention time
O=C(CCc1nc(CSc2nc3ccccc3s2)no1)Nc1nc(-c2ccccc2)cs1 | 1090 s
CCOc1ccccc1CN1CCc2nc(N3CCN(c4ncccn4)CC3)ncc2C1 | 672 s
Cc1nn(CC(=O)NCCCOC(C)C)c(=O)c2c(-n3cccc3)n(-c3ccc(Cl)cc3)nc12 | 997 s
Cc1cc(C)n2nc(CN(C(=O)c3cccs3)c3ccccc3)nc2n1 | 777 s
O=S(=O)(Cc1ccccc1F)N1CC(c2nc(CCOCc3ccccc3)no2)C1 | 1010 s
Cc1nn2c(CNC(=O)Cc3cccc(C(F)(F)F)c3)c(C)nc2s1 | 679 s
Cc1ccccc1NS(=O)(=O)c1cn(CC(C)C)c2ncccc12 | 976 s
CC1C(=O)NCCN1C(=O)Cc1ccc2c(c1)OCO2 (stereo not given) | 600 s
CCc1ccc(-n2nnc(C(=O)N3CCC(N4CCCCC4)CC3)c2-c2ccncc2)cc1 | 634 s
COC(=O)c1cc(C)nc2c1c(=O)n(Cc1ccc(OC)cc1)c(=O)n2C | 953 s
CCn1ccc2cc(S(=O)(=O)N3CCCC(C(=O)NCCCN4CCCCC4)C3)ccc21 (stereo not given) | 676 s
c1ccc(Cn2cnnc2C2CCN(CC3CC3)CC2)cc1 | 566 s
COc1cc(/C=C2/C(=O)N(c3ccccc3)N=C2C)ccc1OCC(=O)Nc1ccccc1 | 1080 s
CN1C(=O)C2CCCCN2c2ccc(C(=O)N3CCN(c4cccc(Cl)c4)CC3)cc21 (stereo not given) | 1060 s
COC(=O)c1ccccc1Nc1c(-c2ccccn2)nc2cnccn12 | 816 s
COc1ccccc1N1CCN(C(=O)c2cccc([N+](=O)[O-])c2)CC1 | 786 s
Cc1ccc(CNC(=O)N2CCN(Cc3nc4cc(-c5ccccc5)ccc4o3)CC2)cc1 | 854 s
COc1ccc(CN2CCc3nc(N4CCOCC4)ncc3C2)c(OC)c1OC | 597 s
CC(=O)Nc1ccc(NC(=O)c2nc3ccccn3c2-c2ccc(Cl)cc2)cc1 | 855 s
CCOc1ccc(-n2c(=O)c3sccc3n(Cc3nc(-c4ccccc4)no3)c2=O)cc1 | 1010 s
COc1ccccc1-c1nc(-c2ccc3c(c2)nnn3CCN(C)C)no1 | 644 s
COC(=O)c1ccc2c(=O)n(-c3ccc(C)c(F)c3)c(N3CCN(c4ccccn4)CC3)nc2c1 | 714 s
CCOCCOC(=O)C1=C(C)NC2=C(C(=O)CCC2)C1c1cccc(OC)c1OC (stereo not given) | 732 s

SMILES | RP-LC retention time
O=C(Cc1ccccc1Cl)NCC1CCN(C(=O)c2ccccc2F)CC1 | 722 s
CCN1CCCCc2cc(C(=O)NC(C)COC)sc21 (stereo not given) | 905 s
COCCNC(=O)c1csc(N2CCN(c3ccc(OC)cc3)CC2)n1 | 767 s
O=C(NCc1cc(F)cc(F)c1)C1CCN(c2ncnc3c2oc2ccccc23)CC1 | 752 s
Cc1c(CC(=O)NCc2cccnc2)c(=O)n2nc(-c3ccccc3)nc2n1C | 575 s
Cc1ccn2cc(C(=O)NC3CCCC3)nc2c1 | 600 s
Cc1c(C(=O)NC2CC2)cnn1-c1ccc(SCc2ccccc2)nn1 | 866 s
Cc1ccc(-n2nc3c(N4CCN(C(=O)NC(C)C)CC4)nnc(C)c3c2C)cc1 | 675 s
O=C(Cc1ccc(Cl)cc1)Nc1nnc(C2CC(=O)N(c3ccc(F)cc3)C2)o1 (stereo not given) | 772 s
c1cc(-c2nc(-c3ccc4c(c3)ncn4CCN3CCCCC3)no2)co1 | 598 s
COc1ccc(F)cc1S(=O)(=O)N1CCN(C2CCN(C)C2=O)CC1 (stereo not given) | 550 s
CC(=O)c1cccc(NC(=O)Cn2cc3c(n2)CCCCC3)c1 | 821 s
COc1cccc(NC(=O)Cn2c(C)nc3onc(C)c3c2=O)c1 | 708 s
OC(C#Cc1ccccc1)(c1ccccc1)c1ccccc1 | 764 s
CCC(C)NC(=O)CSc1nc2nc(C)cc(C)n2n1 (stereo not given) | 650 s
CCc1nnc(-c2ccc3ccn(CC(=O)N4CCN(c5ccc(F)cc5)CC4)c3c2)o1 | 878 s
CCOC(=O)C1CCN(C(=O)c2ccc3ccnc(N4CCN(c5ccc(F)cc5)CC4)c3c2)CC1 | 814 s
Cc1cccc(Nc2c(-c3ccc(C(=O)O)cc3)nc3cnccn23)c1C | 780 s
Cc1cc2c(=O)n(CC(=O)N3CCCc4ccccc43)c3cccnc3n2n1 | 767 s
COc1ccc(CNc2nc3ccncc3n(C(C)C)c2=O)cc1OC | 550 s
O=C(Cn1ccn2nc(-c3ccccc3)c(CO)c2c1=O)N1CCN(c2ccccc2)CC1 | 800 s
